Assay results from paper PMC9061853, “Luminescent bis(benzo[d]thiazolyl)quinoxaline: facile synthesis, nucleic acid and protein BSA interaction, live-cell imaging, biopharmaceutical research and cancer theranostic application” (RSC Advances, 2019).

Key:
HeLa cells = assay: Live cell imaging / cellular uptake; assay type: cell-based, human; details: 50 μM in buffer, 4 h incubation, fluorescence microscopy
Procedure: Live cell imaging was performed in HeLa cell line. Compound 7e in 50 μM concentration in the buffer, were incubated with HeLa cells for 4 h. […] Significant potency, selectivity and cellular imaging property of compound 7e, mark it as a theranostic agent.
Fig. 2 Fluorescence and bright-field images of live cells: (a) fluorescent image of HeLa cell with compound 7e (50 μM in PBS buffer); incubation time 2 hours (b) bright-field image of HeLa cell with compound 7e (50 μM in PBS buffer); incubation time 2 hours. Scale bar 100 μm.
Then the 96 well plate was placed on the shaker for 10 min and subsequently the absorbance was recorded by the ELISA reader at λ = 490 nm. […] The data were expressed as the growth inhibition percentage calculated according to the equation: % growth inhibition = 100 − [(AD × 100)/AB], where AD is the absorbance measured for sample and AB is the absorbance measured for blank wells (cells with a […]
After incubating for 4 h at 37 °C, all the cells were washed with PBS buffer (pH 7.4). Then, the fluorescence images were recorded with an Olympus Fluorescence microscope with 480- […]
Interaction of complex (7e ) with DNA was recorded using UV-Visible absorption spectroscopy and ethidium bromide displacement assay by fluorescence spectroscopy. […]
The CT-DNA concentration in buffer were calculated by using the UV absorbance value at 260 nm and from the known molar […]

CT-DNA = assay: Ethidium bromide displacement assay (fluorescence); assay type: binding
Procedure: DNA is one of the key target for cancer therapy. The drug molecules bind with the DNA by three major modes (i) electrostatic interactions with the DNA double helix (ii) binding to grooves of DNA (iii) intercalation between the base pairs of DNA.[25] The titration in UV was performed by increasing concentration of DNA from 10–60 μM into a fixed drug concentration (20 μM). The intra-ligand absorption bands around 290–350 nm (π–π* transition) were used in observation of the interaction of DNA and compound 7e (Fig. S3a ^†). There was a hypochromic shift with a slight blue shift in the wavelength of compound 7e was observed which concluded that complex 7e bind to DNA through intercalative binding mode.[26] […] Ethidium bromide, a nonspecific intercalator, gives a strong fluorescence while intercalating DNA base pairs. This enhanced fluorescence can be quenched by another chemical moiety which can competitively replace EtBr and binds to the same site.[27] […] The original fluorescence intensity of EtBr–DNA complex is rapidly quenched by increasing the concentration of compound 7e (Fig. S3c ^†). […]
EtBr displacement is periodically used as a diagnostic approach to determine the capability of compounds to bind with DNA [4]. EtBr emits intense fluorescence when it intercalates with CT-DNA, whereas in its free form in buffer (5 mM Tris-HCl/50mM NaCl buffer, pH 7.4) there is no apparent florescence emission. […] The binding capacity of drug complex with CT-DNA was estimated by quenching of fluorescence intensity. […]
Κapp ×[Complex]50 = ΚEtBr ×[EtBr ](3) where Kapp is the apparent binding constant of the complex, [Complex]50 is the concentration of the complex at 50% fluorescence quenching of DNA-bound ethidium bromide, KEB is the binding constant of the EB (KEtBr = 1.0 x 107 M-1), and [EB] is the concentration of ethidium bromide (8 μM). The Stern-Volmer quenching constant (K SV) has been determined quantitatively by using Stern-Volmer equation. Stern-Volmer plots of I0/I vs. [complex] were made using the corrected fluorescence data taking into account the effect of dilution. […]

Clc1cc2nc(COc3ccccc3-c3nc4ccccc4s3)c(COc3ccccc3-c3nc4ccccc4s3)nc2cc1Cl [Compound 7e]
fluorescence of drug-treated live cells (cellular uptake) (HeLa cells): significant red fluorescence | K sv, Stern–Volmer quenching constant (CT-DNA; EtBr–DNA fluorescence quenching): 5500 M⁻¹ | [7e]50, concentration at 50% fluorescence quenching of DNA-bound ethidium bromide (CT-DNA; [DNA] = 120 μM, [EtBr] = 8 μM, Tris HCl/NaCl buffer pH 7.2): 140 µM | K app, apparent DNA binding constant (CT-DNA; competitive displacement of EtBr, fluorescence): 570000 M⁻¹
